Measurements reported in patent US6972296B2, “Carboxylic acid derivatives that inhibit the binding of integrins to their receptors” (Encysive Pharmaceuticals Inc., priority 1999, dated 2005).
One block for each molecule: values may come before it.

Biological target: T1, α4β1 integrin (Homo sapiens, UniProt P05556+P13612)
T1 construct: endogenous in cells; host or cells: Ramos cells
Experiment: Adhesion of calcein-labeled Ramos cells to CS1 (fibronectin) peptide conjugated ovalbumin
Assay type: cell-based
Conditions: Ramos cell adhesion to CS1 conjugated ovalbumin
How it was run: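 Plates bearing CS1 fibronectin peptide coupled to ovalbumin (0.5 μg/ml coat, 3% BSA block) received calcein-labelled Ramos cells plus compound (100 μM stated) for 30 min at 37 °C. Buffer was TBS pH 7.5 with 1 mM Mg2+, Ca2+, Mn2+; bound cells quantified by fluorescence after lysis; […].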

[1] = Table 7, dose required to give 50% inhibition
[2] = Table 5, dose required to give 50% inhibition

T1 sequence (P13612 34-1032): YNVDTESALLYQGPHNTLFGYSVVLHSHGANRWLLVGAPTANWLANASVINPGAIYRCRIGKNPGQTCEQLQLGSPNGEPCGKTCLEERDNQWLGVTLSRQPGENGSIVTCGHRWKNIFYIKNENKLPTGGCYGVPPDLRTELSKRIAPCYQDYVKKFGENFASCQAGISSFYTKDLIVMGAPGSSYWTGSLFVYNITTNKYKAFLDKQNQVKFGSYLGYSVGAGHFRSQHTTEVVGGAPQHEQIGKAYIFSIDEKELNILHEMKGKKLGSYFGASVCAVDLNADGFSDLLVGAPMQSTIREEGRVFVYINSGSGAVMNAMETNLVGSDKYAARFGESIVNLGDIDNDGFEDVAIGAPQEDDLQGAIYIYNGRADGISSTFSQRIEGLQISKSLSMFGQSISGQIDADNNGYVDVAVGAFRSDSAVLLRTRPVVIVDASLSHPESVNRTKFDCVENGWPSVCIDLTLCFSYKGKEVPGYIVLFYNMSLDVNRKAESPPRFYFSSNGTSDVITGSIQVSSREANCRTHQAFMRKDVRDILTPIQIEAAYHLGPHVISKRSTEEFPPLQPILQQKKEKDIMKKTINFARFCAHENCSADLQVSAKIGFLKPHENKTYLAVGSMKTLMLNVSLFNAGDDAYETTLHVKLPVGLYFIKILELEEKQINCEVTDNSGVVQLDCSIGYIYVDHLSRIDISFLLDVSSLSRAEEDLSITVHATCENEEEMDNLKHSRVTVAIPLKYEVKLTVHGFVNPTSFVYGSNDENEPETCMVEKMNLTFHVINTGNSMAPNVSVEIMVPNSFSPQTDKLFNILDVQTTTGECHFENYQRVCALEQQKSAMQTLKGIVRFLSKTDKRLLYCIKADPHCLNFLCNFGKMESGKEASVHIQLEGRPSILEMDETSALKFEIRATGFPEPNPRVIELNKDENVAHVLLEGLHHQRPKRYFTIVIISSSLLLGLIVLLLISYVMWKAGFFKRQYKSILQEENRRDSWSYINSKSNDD
T1 sequence (P05556 21-798): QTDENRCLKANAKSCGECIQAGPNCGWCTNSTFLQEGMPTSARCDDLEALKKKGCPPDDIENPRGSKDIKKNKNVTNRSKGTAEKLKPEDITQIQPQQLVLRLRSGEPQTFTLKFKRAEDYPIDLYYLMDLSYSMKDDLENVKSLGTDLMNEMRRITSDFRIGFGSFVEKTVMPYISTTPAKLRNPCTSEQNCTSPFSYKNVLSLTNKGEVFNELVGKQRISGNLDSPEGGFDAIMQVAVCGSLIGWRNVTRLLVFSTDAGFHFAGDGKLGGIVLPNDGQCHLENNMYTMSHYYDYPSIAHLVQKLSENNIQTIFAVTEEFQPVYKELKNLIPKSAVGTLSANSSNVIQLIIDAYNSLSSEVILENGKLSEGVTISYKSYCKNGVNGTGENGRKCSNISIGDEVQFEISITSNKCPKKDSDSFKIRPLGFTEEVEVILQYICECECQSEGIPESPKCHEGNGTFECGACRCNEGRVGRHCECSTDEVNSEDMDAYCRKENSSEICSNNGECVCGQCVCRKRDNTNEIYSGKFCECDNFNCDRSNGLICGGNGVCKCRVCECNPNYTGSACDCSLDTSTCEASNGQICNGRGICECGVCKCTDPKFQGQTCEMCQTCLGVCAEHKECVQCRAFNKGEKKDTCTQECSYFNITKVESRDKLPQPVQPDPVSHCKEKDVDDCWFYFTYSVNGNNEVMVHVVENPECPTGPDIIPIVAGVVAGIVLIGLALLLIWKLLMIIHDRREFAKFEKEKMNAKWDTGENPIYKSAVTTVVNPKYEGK

SMILES: O=C(O)CC(NC(=O)Nc1cccn(Cc2ccccc2Cl)c1=O)c1ccc(Cl)cc1 (stereo not shown)
- IC50 (Table 4, 30 minutes at 37° C.): 400 nM

SMILES: COc1ccccc1-c1ccc([C@H](CC(=O)O)NC(=O)Nc2c(O)c(C)cn(Cc3ccccc3Cl)c2=O)cc1
- IC50 [1]: 25 nM

SMILES: CCOc1cccc(Cl)c1Cn1nc(C)c(O)c(NC(=O)N[C@@H](CC(=O)O)c2cccc(OC(C)C)c2)c1=O
- IC50 [1]: 2 nM

SMILES: CCOc1cccc([C@H](CC(=O)O)NC(=O)Nc2c(O)c3c(n(Cc4ccccc4Cl)c2=O)CCC3)c1
- IC50 (Table 6, 30 minutes at 37° C.): 3 nM

SMILES: O=C(O)C[C@H](NC(=O)Nc1c(O)c2c(n(Cc3ccccc3Cl)c1=O)CCC2)c1ccccc1
- IC50 [1]: 8 nM

SMILES: Cc1cccc(Cl)c1Cn1c2c(c(O)c(NC(=O)N[C@@H](CC(=O)O)c3cccc(OC(C)C)c3)c1=O)CCC2
- IC50 [1]: 10 nM

SMILES: CCN(c1cccc([C@H](CC(=O)O)NC(=O)Nc2c(O)c3c(n(Cc4c(C)cccc4Cl)c2=O)CCC3)c1)S(C)(=O)=O [(3S)-3-{[({1-[(2-chloro-6-methylphenyl)methyl]-4-hydroxy-2-oxo-2,5,6,7-tetrahydro-1H-cyclopenta[b]pyridin-3-yl}amino)carbonyl]amino}-3-{3-[ethyl(methylsulfonyl)amino]phenyl}propanoic acid]
- IC50 [1]: 1 nM

SMILES: COc1ccc([C@H](CC(=O)O)NC(=O)Nc2c(O)c3c(n(Cc4ccccc4Cl)c2=O)CCC3)cc1F
- IC50 [1]: 3 nM

SMILES: CCCCOc1ccc([C@H](CC(=O)O)NC(=O)Nc2c(O)ccn(Cc3ccccc3Cl)c2=O)cc1OCCCC
- IC50 [2]: 25 nM

SMILES: CC(C)C[C@H](CC(=O)O)NC(=O)Nc1c(N2CCOCC2)ccn(Cc2ccccc2Cl)c1=O
- IC50 (Table 4, 30 minutes at 37° C.): 100 nM

SMILES: Cc1ccc([C@H](CC(=O)O)NC(=O)Nc2c(O)c3c(n(Cc4ccc(Cl)cc4)c2=O)CCC3)cc1
- IC50 (Table 6, 30 minutes at 37° C.): 50 nM

SMILES: O=C(O)C[C@H](NC(=O)Nc1c(O)c2c(n(Cc3ccccc3Cl)c1=O)CCC2)c1cc(F)cc(F)c1
- IC50 [1]: 7 nM

SMILES: O=C(Nc1cccn(Cc2ccccc2Cl)c1=O)N[C@H](Cc1ccccc1)C(=O)O
- IC50 (Table 4, 30 minutes at 37° C.): 50000 nM

SMILES: Cc1cccc(Cl)c1Cn1c2c(c(O)c(NC(=O)N[C@@H](CC(=O)O)c3cccc(OC4CCC4)c3)c1=O)CCC2
- IC50 [1]: 20 nM

SMILES: CS(=O)(=O)Nc1cccc([C@H](CC(=O)O)NC(=O)Nc2c(O)c3c(n(Cc4ccccc4Cl)c2=O)CCC3)c1 [(3S)-3-{[({1-[(2-chlorophenyl)methyl]-4-hydroxy-2-oxo-2,5,6,7-tetrahydro-1H-cyclopenta[b]pyridin-3-yl}amino)carbonyl]amino}-3-{3-[(methylsulfonyl)amino]phenyl}propanoic acid]
- IC50 [1]: 3 nM

SMILES: CCCc1cn(Cc2c(Cl)cccc2OC)c(=O)c(NC(=O)N[C@@H](CC(=O)O)c2ccc(C)c(C)c2)c1O
- IC50 (Table 6, 30 minutes at 37° C.): 17 nM

SMILES: Cc1ccc(-c2cccc([C@H](CC(=O)O)NC(=O)Nc3c(O)c(C)cn(Cc4ccccc4Cl)c3=O)c2)cc1
- IC50 [1]: 23 nM

SMILES: Cc1cn(Cc2c(C)cccc2Cl)c(=O)c(NC(=O)NC(CC(=O)O)c2ccc(S(C)(=O)=O)cc2)c1O (stereo not shown)
- IC50 [1]: 43 nM

SMILES: CCOc1cccc(Cl)c1Cn1cc(C2CC2)c(O)c(NC(=O)N[C@@H](CC(=O)O)c2cccc(OC(C)C)c2)c1=O [(3S)-3-[({[1-(2-chloro-6-ethoxybenzyl)-5-cyclopropyl-4-hydroxy-2-oxo-1,2-dihydropyridin-3-yl]amino}carbonyl)amino]-3-(3-isopropoxyphenyl)propanoic acid]
- IC50 [1]: 3 nM

SMILES: CCCc1cn(Cc2ccccc2Cl)c(=O)c(NC(=O)N[C@@H](CC(=O)O)c2cccc(OCC)c2)c1O [(3S)-3-[({[1-(2-chlorobenzyl)-4-hydroxy-2-oxo-5-propyl-1,2-dihydropyridin-3-yl]amino}carbonyl)amino]-3-(3-ethoxyphenyl)propanoic acid]
- IC50 [2]: 3 nM

SMILES: O=C(O)C[C@H](NC(=O)Nc1cccn(Cc2cccs2)c1=O)c1ccccc1
- IC50 (Table 4, 30 minutes at 37° C.): 1000 nM

SMILES: CCOc1cccc(Cl)c1Cn1c2c(c(O)c(NC(=O)N[C@@H](CC(=O)O)c3cccc(OC4CC4)c3)c1=O)CCC2 [(3S)-3-[({[1-(2-chloro-6-ethoxybenzyl)-4-hydroxy-2-oxo-2,5,6,7-tetrahydro-1H-cyclopenta[b]pyridin-3-yl]amino}carbonyl)amino]-3-[3-(cyclopropyloxy)phenyl]propanoic acid]
- IC50 [1]: 2 nM

Now from value to molecule:

- IC50 (Table 3, 30 minutes at 37° C.): 10 nM
SMILES: Cc1ccc([C@H](CC(=O)O)NC(=O)Nc2c(N)ccn(Cc3ccccc3Cl)c2=O)cc1 [(3S)-3-{[({4-amino-1-[(2-chlorophenyl)methyl]-2-oxo-1,2-dihydro-3-pyridinyl}amino)carbonyl]amino}-3-(4-methylphenyl)propanoic acid]

- IC50 [2]: 10 nM
SMILES: Cc1ccc([C@H](CC(=O)O)NC(=O)Nc2c(O)ccn(Cc3cc(C(F)(F)F)ccc3Cl)c2=O)cc1 [(3S)-3-{[({1-[2-chloro-5-(trifluoromethyl)benzyl]-4-hydroxy-2-oxo-1,2-dihydropyridin-3-yl}amino)carbonyl]amino}-3-(4-methylphenyl)propanoic acid]

- IC50 (Table 4, 30 minutes at 37° C.): 100 nM
SMILES: Cc1ccc([C@H](CC(=O)O)NC(=O)Nc2cccn(Cc3ccccc3F)c2=O)cc1

- IC50 (Table 3, 30 minutes at 37° C.): 1 nM
SMILES: Cc1ccc([C@H](CC(=O)O)NC(=O)Nc2c(N3CCOCC3)ccn(Cc3ccccc3Cl)c2=O)cc1

- IC50 [2]: 3 nM
SMILES: CCCOc1cccc([C@H](CC(=O)O)NC(=O)Nc2c(O)ccn(Cc3ccccc3Cl)c2=O)c1

- IC50 (Table 4, 30 minutes at 37° C.): 600 nM
SMILES: Cc1ccc([C@H](CC(=O)O)NC(=O)Nc2cccn(Cc3cccs3)c2=O)cc1

- IC50 (Table 4, 30 minutes at 37° C.): 3000 nM
SMILES: Cc1ccc([C@H](CC(=O)O)NC(=O)Nc2cccn(Cc3ccc(C(F)(F)F)cc3F)c2=O)cc1

- IC50 [2]: 2500 nM
SMILES: COc1c(Cn2cccc(NC(=O)N[C@@H](CC(=O)O)c3ccc(C)cc3)c2=O)cccc1C(C)(C)C

- IC50 [2]: 30 nM
SMILES: Cc1ccc([C@H](CC(=O)O)NC(=O)Nc2c(O)ccn(Cc3ccccc3S(=O)(=O)N(C)C)c2=O)cc1

- IC50 [2]: 5 nM
SMILES: Cc1ccc([C@H](CC(=O)O)NC(=O)Nc2c(O)c(C)cn(Cc3ccccc3Cl)c2=O)cc1 [(3S)-3-[({[1-(2-chlorobenzyl)-4-hydroxy-5-methyl-2-oxo-1,2-dihydropyridin-3-yl]amino}carbonyl)amino]-3-(4-methylphenyl)propanoic acid]

- IC50 [2]: 200 nM
SMILES: O=C(O)CC(NC(=O)Nc1c(O)ccn(Cc2ccccc2Cl)c1=O)c1cccc2ccccc12 (stereo not shown)

- IC50 (Table 3, 30 minutes at 37° C.): 5 nM
SMILES: Cc1ccc([C@H](CC(=O)O)NC(=O)Nc2c(C)ccn(Cc3ccccc3Cl)c2=O)cc1 [(3S)-3-{[({1-[(2-chlorophenyl)methyl]-4-methyl-2-oxo-1,2-dihydro-3-pyridinyl}amino)carbonyl]amino}-3-(4-methylphenyl)propanoic acid]

- IC50 [2]: 50 nM
SMILES: Cc1ccc(C)c([C@H](CC(=O)O)NC(=O)Nc2c(O)ccn(Cc3ccccc3Cl)c2=O)c1

- IC50 [1]: 35 nM
SMILES: Cc1cn(Cc2ccccc2Cl)c(=O)c(NC(=O)NC(CC(=O)O)c2ccc(C3CC3)cc2)c1O (stereo not shown)

- IC50 [2]: 10 nM
SMILES: Cc1ccc([C@H](CC(=O)O)NC(=O)Nc2c(O)c(C)cn(Cc3c(C)cccc3Cl)c2=O)cc1 [(3S)-3-[({[1-(2-chloro-6-methylbenzyl)-4-hydroxy-5-methyl-2-oxo-1,2-dihydropyridin-3-yl]amino}carbonyl)amino]-3-(4-methylphenyl)propanoic acid]

- IC50 (Table 4, 30 minutes at 37° C.): 1000 nM
SMILES: Cc1ccc([C@H](CC(=O)O)NC(=O)Nc2cccn(Cc3ccccc3[N+](=O)[O-])c2=O)cc1

- IC50 (Table 4, 30 minutes at 37° C.): 1000 nM
SMILES: Cc1ccc([C@H](CC(=O)O)NC(=O)Nc2cccn(Cc3ccc(Cl)cc3Br)c2=O)cc1

- IC50 [1]: 15 nM
SMILES: Cc1cn(Cc2ccccc2Cl)c(=O)c(NC(=O)N[C@@H](CC(=O)O)c2ccccc2)c1O
